We go through eight compounds from PubChem BioAssay (NCI).

Test systems include OVCAR-8 ovarian; CAKI-1 renal; SN12C renal; NCI-H460 lung; MDA-MB-435; T-47D breast; SK-MEL-5 melanoma; SF-539 CNS; CCRF-CEM leukemia; HL-60(TB) leukemia.
What all share (assay): DTP human tumour cell line panel, 48 h

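All cell lines were grown in 96-well plates and treated with compound for 48 hours. At the GI50, growth is halved. TGI is the concentration that stops growth completely.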 Bounds are passed on as bounds.

On to `O=C(Nc1ccc2ncnc(Nc3ccc(Oc4cccc(F)c4)c(Cl)c3)c2c1)c1ccc(CN2CCOCC2)cc1`, for which the GI50 with OVCAR-8 ovarian was 2.34 µM; with CAKI-1 renal, 2.18 µM; in the test on SN12C renal it was 2.6 µM; in the test with NCI-H460 lung, 2.39 µM; in the test on MDA-MB-435 it was 2.18 µM; in the test with T-47D breast, 1.09 µM. The GI50 with SK-MEL-5 melanoma is 1.74 µM; in the test with SF-539 CNS, 2.51 µM; with CCRF-CEM leukemia, 2.95 µM; in the test on HL-60(TB) leukemia it was 2.69 µM. For the same compound, the TGI was 7.69 µM with OVCAR-8 ovarian; 10.5 µM with CAKI-1 renal; greater than 100 µM in the test on SN12C renal; 6.39 µM in the test with NCI-H460 lung; 5.39 µM in the test on MDA-MB-435; 4.2 µM in the test on T-47D breast. The TGI in the test on SK-MEL-5 melanoma came to 3.25 µM; in the test on SF-539 CNS, 6.99 µM; in the test on CCRF-CEM leukemia, 20.7 µM; in the test on HL-60(TB) leukemia, 7.88 µM.
As to `COc1ccc(OC)c(NC(=O)c2cccc(NC3=C(Cl)C(=O)N(Cc4ccccc4)C3=O)c2)c1`, the GI50 was greater than 76.8 µM in the test with OVCAR-8 ovarian; greater than 100 µM with CAKI-1 renal; greater than 58.1 µM in the test with SN12C renal; greater than 58.1 µM in the test with NCI-H460 lung; greater than 64.7 µM in the test with MDA-MB-435; greater than 100 µM with T-47D breast. The GI50 in the test on SK-MEL-5 melanoma is 26.6 µM; in the test with SF-539 CNS, greater than 94.9 µM; with HL-60(TB) leukemia it was 5.82 µM. Further, the TGI in the test with OVCAR-8 ovarian, in the test with CAKI-1 renal, with SN12C renal, in the test with NCI-H460 lung, with MDA-MB-435 and with T-47D breast was greater than 100 µM throughout. The TGI is 87.7 µM in the test on SK-MEL-5 melanoma, greater than 100 µM in the test on SF-539 CNS, greater than 100 µM in the test with CCRF-CEM leukemia and greater than 100 µM with HL-60(TB) leukemia.
Consider `Cc1cc2c(cc1C)[n+](=O)c(C(=O)/C=C/c1ccc3c(c1)OCO3)c(C)n2[O-]`, for which the TGI was greater than 100 µM in the test with OVCAR-8 ovarian; greater than 89 µM in the test with CAKI-1 renal; greater than 100 µM with SN12C renal; greater than 100 µM in the test on NCI-H460 lung; greater than 100 µM in the test with MDA-MB-435; greater than 100 µM in the test with T-47D breast. Also, the TGI in the test with SK-MEL-5 melanoma, in the test on SF-539 CNS, in the test on CCRF-CEM leukemia and in the test on HL-60(TB) leukemia was greater than 100 µM throughout.
For `O=C1/C(=C/c2ccc(F)c(F)c2)CN(C(=O)C(Cl)Cl)C/C1=C\c1ccc(F)c(F)c1`, the GI50 in the test on OVCAR-8 ovarian is 0.0564 µM; with CAKI-1 renal, 0.188 µM; with SN12C renal it was 0.112 µM; in the test with NCI-H460 lung it was 0.134 µM; in the test on MDA-MB-435, 0.142 µM; with T-47D breast, 0.302 µM. Moreover, the GI50 is 0.19 µM with SK-MEL-5 melanoma, 0.094 µM in the test on SF-539 CNS, 0.0266 µM in the test on CCRF-CEM leukemia and 0.113 µM with HL-60(TB) leukemia. The TGI with OVCAR-8 ovarian was 1.31 µM; in the test with CAKI-1 renal it was 0.551 µM; with SN12C renal, 0.381 µM; in the test with NCI-H460 lung it was 0.444 µM; with MDA-MB-435 it was 0.324 µM; with T-47D breast, 2.05 µM. The TGI in the test with SK-MEL-5 melanoma is 0.38 µM; in the test with SF-539 CNS, 0.276 µM; in the test on CCRF-CEM leukemia, greater than 100 µM; with HL-60(TB) leukemia, 0.97 µM.
Regarding `CC(CN1CC(=O)NC(=O)C1)N1CC(=O)NC(=O)C1` (centres undefined), the TGI is greater than 750 µM in the test on OVCAR-8 ovarian; greater than 750 µM in the test on CAKI-1 renal; greater than 750 µM with SN12C renal; greater than 622 µM with NCI-H460 lung; greater than 750 µM in the test on MDA-MB-435; greater than 750 µM in the test on T-47D breast. Further, the TGI was greater than 750 µM in the test with SK-MEL-5 melanoma, greater than 750 µM with SF-539 CNS, greater than 662 µM in the test with CCRF-CEM leukemia and 690 µM with HL-60(TB) leukemia.
On to `C=C(C)[C@@H]1CC[C@]2(COCCCNCCCN)CC[C@]3(C)[C@H](CC[C@@H]4[C@@]5(C)CC[C@H](OCCCN)C(C)(C)[C@@H]5CC[C@]43C)[C@@H]12`, for which the GI50 was 0.903 µM in the test on OVCAR-8 ovarian; 0.982 µM with CAKI-1 renal; 0.867 µM with SN12C renal; 0.94 µM with NCI-H460 lung; 0.833 µM with MDA-MB-435; 0.858 µM with T-47D breast. For the same compound, the GI50 with SK-MEL-5 melanoma is 1.72 µM; in the test with SF-539 CNS, 0.891 µM; with CCRF-CEM leukemia it was 0.822 µM; with HL-60(TB) leukemia, 2.12 µM. The TGI with OVCAR-8 ovarian amounted to 1.72 µM; with CAKI-1 renal, 2.3 µM; in the test with SN12C renal it was 1.62 µM; with NCI-H460 lung it was 1.75 µM; in the test on MDA-MB-435, 1.53 µM; in the test with T-47D breast, 1.71 µM. For the same compound, the TGI with SK-MEL-5 melanoma is 5.81 µM; with SF-539 CNS it was 1.59 µM; with CCRF-CEM leukemia it was 1.97 µM; in the test with HL-60(TB) leukemia, 8.33 µM.
On to `CCCCCCCN(CCCCCCC)C(=N)c1ccnc2ccccc12`, for which the GI50 with OVCAR-8 ovarian is 1.63 µM; in the test with CAKI-1 renal, 1.32 µM; in the test on SN12C renal, 1.67 µM; with NCI-H460 lung it was 1.69 µM; with MDA-MB-435, 1.58 µM; in the test on T-47D breast it was 1.78 µM. The GI50 with SK-MEL-5 melanoma is 1.51 µM; in the test with SF-539 CNS, 1.9 µM; in the test with CCRF-CEM leukemia, 2.14 µM; in the test with HL-60(TB) leukemia, 1.75 µM. Also, the TGI in the test on OVCAR-8 ovarian was determined as 3.48 µM; with CAKI-1 renal, 2.68 µM; with SN12C renal it was 3.49 µM; in the test on NCI-H460 lung it was 3.27 µM; in the test with MDA-MB-435, 3.24 µM; in the test with T-47D breast, 4.3 µM. Further, the TGI with SK-MEL-5 melanoma amounted to 2.96 µM; with SF-539 CNS it was 3.58 µM; in the test with CCRF-CEM leukemia, 5.27 µM; with HL-60(TB) leukemia, 3.7 µM.
Consider `CC(CN(C)C)S(=O)(=O)c1ccc(-c2cnc(N)c(C(=O)Nc3ccccc3)n2)cc1` (centres undefined), for which the GI50 in the test on OVCAR-8 ovarian is 10.3 µM; in the test on CAKI-1 renal it was 3.02 µM; in the test with SN12C renal it was 5.09 µM; with NCI-H460 lung, 2.95 µM; with MDA-MB-435 it was 4.51 µM; with T-47D breast, 13.1 µM. For the same compound, the GI50 in the test with SK-MEL-5 melanoma is 2.93 µM; in the test with SF-539 CNS it was 2.75 µM; with CCRF-CEM leukemia, 2.61 µM; in the test with HL-60(TB) leukemia, 3.05 µM. The TGI in the test on OVCAR-8 ovarian is greater than 89.8 µM; in the test with CAKI-1 renal, greater than 50.8 µM; in the test with SN12C renal, 27 µM; in the test with NCI-H460 lung, 22.2 µM; in the test on MDA-MB-435, 23.8 µM; in the test with T-47D breast, 59.3 µM. For the same compound, the TGI with SK-MEL-5 melanoma stood at 11.5 µM; with SF-539 CNS it was 9.76 µM; with CCRF-CEM leukemia, 29.6 µM; with HL-60(TB) leukemia it was 11 µM.
